Read-outs that look alike come from different tables or passages of the source.

For this assay, the system named is A375 Sensitive cells. Description: Viability test, trypan blue exclusion, A375 Sensitive cells. Particulars: Homo sapiens, A-375, viable cells as percentage of DMSO control. In kind it is cell-based, human. An outline of the steps:
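A375 (B-Raf, CDKN2A, PTEN mutant) cells were exposed to compounds at 5.0 or 10 μM for 24 or 48 hr; CRO15 also at 0.5–50 μM for 48 hr or 5 μM for 2–48 hr; DMSO control. Viable cells were counted by trypan blue exclusion, as % of control. Three experiments in triplicate.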

The mark [1] stands for this setting: 24 h, read-out: Viab A375 5 μM/ 24 h.
The mark [2] stands for this setting: 48 h, read-out: Viab A375 5 μM/ 48 h.
Setting [3] is: 24 h, read-out: Viab A375 10 μM/ 24 h.
[4] abbreviates: 48 h, read-out: Viab A375 10 μM/ 48 h.

Regarding `N=C(NC(=N)c1cccc(Cl)c1)Nc1nc2ccccc2s1` [MTF 243, N—(N-(benzo[d]thiazol-2-yl)carbamimidoyl)-3-chlorobenzimidamide], the viability at 5 µM under setting [1] came out at 22.1% and the viability at 5 µM under setting [2] stood at 7%. In addition, the viability at 10 µM is 12.1% under setting [3] and 2.7% under setting [4].

Consider `Nc1nc(Nc2ccc(F)cc2SSc2cc(F)ccc2Nc2nc(N)nc(C(Cl)(Cl)Cl)n2)nc(C(Cl)(Cl)Cl)n1` [MTF 234, N2,N2′-(disulfanediylbis(4-fluoro-2,1-phenylene))bis(6-(trichloromethyl)-1,3,5-triazine-2,4-diamine)], for which the viability at 5 µM is, setting by setting: under setting [1], 29.6%; under setting [2], 17.4%. The viability at 10 µM amounted to 9.6% under setting [3] and 7.8% under setting [4].

As for `N=C(NC(=N)c1ccncc1)Nc1nc(-c2cccc([N+](=O)[O-])c2)cs1` [MTF 261, N—(N-(4-(3-nitrophenyl)thiazol-2-yl)carbamimidoyl)isonicotinimidamide], the viability at 5 µM reads like this: under setting [1], 24.6%; under setting [2], 63.6%. Further, the viability at 10 µM under setting [3] turned out to be 71.9% and the viability at 10 µM under setting [4] is 115%.

As to `Cc1csc(NC(=N)NC(=N)c2ccccc2)n1` [MTF 283, N—(N-(4-methylthiazol-2-yl)carbamimidoyl)benzimidamide], the viability at 5 µM by setting is: under setting [1], 100%; under setting [2], 56%. Also, the viability at 10 µM is, setting by setting: under setting [3], 100%; under setting [4], 150%.

Regarding `COc1ccc(Nc2nc(N)nc(C(Cl)(Cl)Cl)n2)c(SSc2cc(OC)ccc2Nc2nc(N)nc(C(Cl)(Cl)Cl)n2)c1` [MTF 232, N2,N2′-(disulfanediylbis(4-methoxy-2,1-phenylene))bis(6-(trichloromethyl)-1,3,5-triazine-2,4-diamine)], the viability at 5 µM reads like this: under setting [1], 83.3%; under setting [2], 24.9%. For the same compound, the viability at 10 µM under setting [3] is 33.9% and the viability at 10 µM under setting [4] amounted to 16.4 ± 4.9%.

Regarding `Nc1nc(Nc2ccccc2SSc2ccccc2Nc2nc(N)nc(-c3cccc(Cl)c3)n2)nc(-c2cccc(Cl)c2)n1` [MTF 322, N2,N2′-(disulfanediylbis(2,1-phenylene))bis(6-(3-chlorophenyl)-1,3,5-triazine-2,4-diamine)], the viability at 5 µM under setting [1] stood at 57.4% and the viability at 5 µM under setting [2] stood at 12.1%. The viability at 10 µM is, setting by setting: under setting [3], 26.9%; under setting [4], 5.7%.

With `Nc1nc(Nc2ccccc2SSc2ccccc2Nc2nc(N)nc(-c3cc4c(cc3Br)OCO4)n2)nc(-c2cc3c(cc2Br)OCO3)n1` [MTF 458, N2,N2′-(disulfanediylbis(2,1-phenylene))bis(6-(6-bromobenzo[d][1,3]dioxol-5-yl)-1,3,5-triazine-2,4-diamine)], the viability at 5 µM runs as follows: under setting [1], 58.7%; under setting [2], 86.8%. Further, the viability at 10 µM reads like this: under setting [3], 46.5%; under setting [4], 104%.

Take `Nc1nc(Nc2ccccc2SSc2ccccc2Nc2nc(N)nc(-c3ccc(I)cc3)n2)nc(-c2ccc(I)cc2)n1` [MTF 328, N2,N2′-(disulfanediylbis(2,1-phenylene))bis(6-(4-iodophenyl)-1,3,5-triazine-2,4-diamine)]: the viability at 5 µM under setting [1] amounted to 50% and the viability at 5 µM under setting [2] was found to be 9.4%. The viability at 10 µM was determined as 27.8% under setting [3] and 3.4% under setting [4].

Turning to `N=C(NC(=N)c1cscc1Br)Nc1nc2ccccc2s1` [MTF 387, N—(N-(benzo[d]thiazol-2-yl)carbamimidoyl)-4-bromothiophene-3-carboximidamide], the viability at 5 µM under setting [1] was found to be 70.1% and the viability at 5 µM under setting [2] stood at 56.2%. The viability at 10 µM was 67.8% under setting [3] and 55.6% under setting [4].

On to `N=C(NC(=N)c1cccs1)Nc1nc2ccccc2s1` [MTF 381, N—(N-(benzo[d]thiazol-2-yl)carbamimidoyl)thiophene-2-carboximidamide], for which the viability at 5 µM is, setting by setting: under setting [1], 88.3%; under setting [2], 61.6%. The viability at 10 µM was determined as 90.6% under setting [3] and 61.4% under setting [4].

Consider `Cc1nc(NC(=N)NC(=N)c2ccccc2Cl)sc1C` [MTF 300, 2-chloro-N—(N-(4,5-dimethylthiazol-2-yl)carbamimidoyl)benzimidamide], for which the viability at 5 µM under setting [1] stood at 96% and the viability at 5 µM under setting [2] was 60%. The viability at 10 µM worked out at 50.8% under setting [3] and 35.9% under setting [4].

For the compound `Nc1nc(Nc2ccccc2O)nc(-c2cccc(Br)c2)n1` [MTF 331, 2-((4-amino-6-(3-bromophenyl)-1,3,5-triazin-2-yl)amino)phenol], the viability at 5 µM by setting is: under setting [1], 104%; under setting [2], 82.9%. Besides, the viability at 10 µM came to 151% under setting [3] and 77.4% under setting [4].

In the case of `N=C(NC(=N)c1cccc(Cl)c1)Nc1nc(-c2ccccc2)cs1` [MTF 267, 3-chloro-N—(N-(4-phenylthiazol-2-yl)carbamimidoyl)benzimidamide], the viability at 5 µM runs as follows: under setting [1], 113%; under setting [2], 113%. The viability at 10 µM under setting [3] came out at 134% and the viability at 10 µM under setting [4] worked out at 73.3%.

In the case of `N=C(NC(=N)c1cccc(Cl)c1)Nc1nc(-c2cccc([N+](=O)[O-])c2)cs1` [MTF 277, 3-chloro-N—(N-(4-(3-nitrophenyl)thiazol-2-yl)carbamimidoyl)benzimidamide], the viability at 5 µM was found to be 77.6% under setting [1] and 88% under setting [2]. Moreover, the viability at 10 µM runs as follows: under setting [3], 76.4%; under setting [4], 85.8%.

Regarding `N=C(NC(=N)c1ccccc1Br)Nc1nc2ccccc2s1` [MTF 250, N—(N-(benzo[d]thiazol-2-yl)carbamimidoyl)-2-bromobenzimidamide], the viability at 5 µM stood at 25.4% under setting [1] and 8.9% under setting [2]. Besides, the viability at 10 µM is, setting by setting: under setting [3], 12%; under setting [4], 2.4%.

`N=C(NC(=N)c1ccnc(Cl)c1)Nc1nc2ccccc2s1` [MTF 380, N—(N-(benzo[d]thiazol-2-yl)carbamimidoyl)-2-chloroisonicotinimidamide]: the viability at 5 µM by setting is: under setting [1], 47.3%; under setting [2], 4.9%. The viability at 10 µM by setting is: under setting [3], 36.2%; under setting [4], 2.3%.

Take `N=C(NC(=N)c1cnccn1)Nc1nc2ccccc2s1` [MTF 345, N—(N-(benzo[d]thiazol-2-yl)carbamimidoyl)pyrazine-2-carboximidamide]: the viability at 5 µM was 25.9% under setting [1] and 1.8% under setting [2]. The viability at 10 µM came out at 17.1% under setting [3] and 1% under setting [4].

As to `Cc1ccc2nc(NC(=N)NC(=N)c3cccc(Br)c3)sc2c1` [MTF 265, 3-bromo-N—(N-(6-methylbenzo[d]thiazol-2-yl)carbamimidoyl)benzimidamide], the viability at 5 µM reads like this: under setting [1], 91%; under setting [2], 100%. In addition, the viability at 10 µM was 84% under setting [3] and 60% under setting [4].

Take `N=C(NC(=N)c1ccccc1Cl)Nc1nc(-c2cccc([N+](=O)[O-])c2)cs1` [MTF 276, 2-chloro-N—(N-(4-(3-nitrophenyl)thiazol-2-yl)carbamimidoyl)benzimidamide]: the viability at 5 µM is 91.6% under setting [1] and 95.3% under setting [2]. Further, the viability at 10 µM is, setting by setting: under setting [3], 73.9%; under setting [4], 64.9%.

On to `COc1ccc(C(=N)NC(=N)Nc2nc(-c3ccccc3)cs2)cc1` [MTF 262, 4-methoxy-N—(N-(4-phenylthiazol-2-yl)carbamimidoyl)benzimidamide], for which the viability at 5 µM worked out at 61.4% under setting [1] and 43.7% under setting [2]. For the same compound, the viability at 10 µM runs as follows: under setting [3], 40.8%; under setting [4], 27.3%.

For `Cc1ccc(C(=N)NC(=N)Nc2nc3ccccc3s2)cc1` [MTF 246, N—(N-(benzo[d]thiazol-2-yl)carbamimidoyl)-4-methylbenzimidamide], the viability at 5 µM was 137% under setting [1] and 91% under setting [2]. Also, the viability at 10 µM reads like this: under setting [3], 94%; under setting [4], 115%.

On to `Nc1nc(Nc2ccccc2SSc2ccccc2Nc2nc(N)nc(-c3cnccn3)n2)nc(-c2cnccn2)n1` [MTF 348, N2,N2′-(disulfanediylbis(2,1-phenylene))bis(6-(pyrazin-2-yl)-1,3,5-triazine-2,4-diamine)], for which the viability at 5 µM reads like this: under setting [1], 102%; under setting [2], 79.6%. In addition, the viability at 10 µM was found to be 110% under setting [3] and 35.8% under setting [4].

Take `Nc1nc(Cc2ccccc2)nc(Nc2ccccc2SSc2ccccc2Nc2nc(N)nc(Cc3ccccc3)n2)n1` [MTF 333]: the viability at 5 µM reads like this: under setting [1], 94.9%; under setting [2], 35.4%. The viability at 10 µM turned out to be 28.7% under setting [3] and 24.1% under setting [4].

Consider `COc1cc(-c2nc(N)nc(Nc3ccccc3SSc3ccccc3Nc3nc(N)nc(-c4cc(OC)c(OC)c(OC)c4)n3)n2)cc(OC)c1OC` [MTF 446, N2,N2′-(disulfanediylbis(2,1-phenylene))bis(6-(3,4,5-trimethoxyphenyl)-1,3,5-triazine-2,4-diamine)], for which the viability at 5 µM is, setting by setting: under setting [1], 62.6%; under setting [2], 13%. The viability at 10 µM is, setting by setting: under setting [3], 16.3%; under setting [4], 1.8%.

For `COc1ccc(-c2nc(N)nc(Nc3ccccc3SSc3ccccc3Nc3nc(N)nc(-c4ccc(OC)cc4)n3)n2)cc1` [MTF 324, N2,N2′-(disulfanediylbis(2,1-phenylene))bis(6-(4-methoxyphenyl)-1,3,5-triazine-2,4-diamine)], the viability at 5 µM was found to be 44.1% under setting [1] and 13.3% under setting [2]. Also, the viability at 10 µM stood at 12.9% under setting [3] and 8.2% under setting [4].

The record behind these values is patent publication US11440906B2, “Biguanide derivatives and their rearrangement products for use in the treatment of cancer” (CENTRE NATIONAL DE LA RECHERCHE SCIENTIFIQUE, priority 2017, dated 2022).
